# Measured values: patent US20210267996A1, “Compounds for inhibition of inflammation” (Children`s Medical Center Corporation, priority 2018, published 2021)
# Columns and labels:
# NF-κB activation = assay: Inflammasome priming by LPS in THP-1 cells (immunoblot); assay type: cell-based, human; conditions: for NF-κB activation / pro-IL-1β induction: 30 μM, 1 hr before LPS; for NLRP3 induction: 1 hour before LPS
# Procedure: Immunoblot analysis: cell extracts were prepared using RIPA buffer (50 mM Tris-HCl pH 7.4, 150 mM NaCl, 1 mM EDTA, 1% Triton X-100, 0.1% SDS, 0.5% deoxycholate) supplemented with a complete protease inhibitor cocktail (Roche) and a PhosSTOP phosphatase inhibitor cocktail (Roche). Samples were subjected to SDS-PAGE and the resolved proteins were then transferred to a PVDF membrane (Millipore). Immunoblots were probed with indicated antibodies and visualized using a SuperSignal West Pico chemiluminescence ECL kit (Pierce).
# Because both disulfiram and Bay 11-7082 non-specifically modify reactive Cys, their effects on the steps leading to pyroptosis and inflammatory caspase activation were next analyzed. Some of the genes that participate in the canonical inflammasome pathway are not expressed in unstimulated cells and their expression needs to be induced, often by binding to cell surface sensors of pathogen and danger-associated molecular patterns, such as Toll-like receptors (TLR), in a process called priming. Bay 11-7082 is known to inhibit NF-κB activation, a key transcription factor in priming. The effect of disulfiram and Bay 11-7082 on priming were first examined (FIG. 45). NF-κB activation was assessed by examining IκBα phosphorylation and degradation and RelA (p65) phosphorylation. Induction of pro-IL-1β was assessed by immunoblot for pro-IL1β protein. In the absence of disulfiram or Bay 11-7082, phosphorylation of p65 was first detected 30 min after adding LPS and persisted for 4 hrs, phosphorylation and reduced IκBα. were detected 1 hr after adding LPS, and increased pro-IL-1β was detected 4 hrs after adding LPS. […] Thus, disulfiram and Bay 11-7082 both inhibit priming.
# Cell death was determined by CytoTox96 assay. […] Cell death was determined by CytoTox96 assay. […] Shown are immunoblots of whole cell lysates harvested 0.5 hr later. […] Representative images of ASC specks (arrowheads) and mean±s.d. percent of cells with ASC specks analyzed 20 min later (FIG. 47). Whole cell lysates (WCL) and culture supernatants (Sup) were harvested 30 min after adding nigericin and immunoblotted with the indicated antibodies (FIG. 50). Caspase-1 activity was assayed 30 min after adding nigericin using a cell-permeable fluorescence dye FAM-YVAD-FMK (FIG. 52). […] Representative images of ASC specks (arrowheads) and mean±s.d. percent of cells with ASC specks analyzed 20 min later (FIGS. 48 and 49). Whole cell lysates (WCL) and culture supernatants (Sup), harvested 30 min after adding nigericin, were analyzed by immunoblot (FIG. 51). […] The Figures show representative confocal microscopy images and quantification of proportion of cells with GSDMD membrane staining and pyroptotic bubbles. Arrows indicate GSDMD staining of pyroptotic bubbles. […] FIGS. 57 and 58, dose response curve of the effect of Bay 11-7082 on caspase-1 (FIG. 57) and caspase-11 (FIG. 58) activity against a fluorescent peptide substrate. FIGS. 59 and 60 show MS/MS spectra of the Cys191-containing GSDMD peptide […] (FIG. 60). FIGS. 61 and 62 show dose response curve of the effect of Bay 11-7082 on liposome leakage induced by 0.3 μM human GSDMD-3C (FIG. 61) or mouse GSDMA3-3C (FIG. 62) plus 0.15 μM 3C protease. […] 2-fold dilutions of Bay 11-7082 from 5-40 μM were used. Graphs show the mean±s.d; data are representative of three independent experiments. *P<0.05, **P<0.01.
# To elucidate the cellular mechanism of pyroptosis inhibition by disulfiram, its effects on the entire inflammasome activation pathway were analyzed. Some of the genes that participate in the canonical inflammasome pathway are not expressed in unstimulated cells and their expression needs to be induced, often by binding to cell surface sensors of pathogen and danger-associated molecular patterns, such as Toll-like receptors (TLR), in a process called priming. […]
# mouse iBMDMs = assay: Non-canonical inflammasome pyroptosis, iBMDMs with LPS electroporation; assay type: cell-based
# Procedure: Cell lines and treatments: THP-1 cells and HEK293T cells (obtained from ATCC) were grown in RPMI with 10% heat-inactivated fetal bovine serum, supplemented with 100 U/ml penicillin G, 100 μg/ml streptomycin sulfate, 6 mM HEPES, 1.6 mM L-glutamine, and 50 μM 2ME. C57BL/6 mouse iBMDM cells were kindly provided by J. Kagan (Boston Children's Hospital) and cultured in DMEM with the same supplements. Cells were verified to be free of mycoplasma contamination. Transient transfection of HEK293T cells was performed using Lipofectamine 2000 (Invitrogen) according to the manufacturer's instructions. iBMDM cells were transfected by nucleofection using the Amaxa Nucleofector kit (VPA-1009). […] To examine IκBα. phosphorylation and degradation as well as IL-1β induction, PMA-differentiated THP-1 cells were stimulated with LPS (1 μg/ml) for 0.5, 1 and 4 hrs, respectively. For noncanoical inflammasome activation, 1 million iBMDM cells were electroporated with 1 μg ultra LPS.
# Cytotoxicity and cell viability assays: cell death and cell viability were determined by the lactate dehydrogenase release assay using the CytoTox 96 Non-Radioactive Cytotoxicity Assay kit (Promega) and by measuring ATP levels using the CellTiter-Glo Luminescent Cell Viability Assay (Promega), respectively, according to the manufacturer's instructions. Luminescence and absorbance were measured on a BioTek Synergy 2 plate reader.
# In FIGS. 4, 6, and 8, PMA-differentiated LPS-primed human THP-1 were pre-treated with indicated concentrations of each compound for 1 h before adding nigericin or medium. The number of surviving cells was determined by CellTiter-Glo assay (FIGS. 4 and 6) and IL-1β in culture supernatants was assessed by ELISA (FIG. 8) 2 hrs later. In FIGS. 5, 7, and 9, mouse iBMDMs were pre-treated with each test compound for 1 hr before electroporation with PBS or LPS. The number of surviving cells was determined by CellTiter-Glo assay (FIGS. 5 and 7) and IL-1β in culture supernatants was assessed by ELISA (FIG. 9) 2.5 hrs later. In FIGS. 8 and 9, 40 μM concentration of test compounds were added.
SMILES,NF-κB activation (NF-κB activation),pro-IL-1β induction (NF-κB activation; listed as disulfiram),NLRP3 induction (NF-κB activation),inhibition of non-canonical inflammasome pyroptosis (mouse iBMDMs),pro-IL-1β induction (NF-κB activation)
"CCN(CC)C(=S)SSC(=S)N(CC)CC [C-23, Tetraethylthiuram disulfide]",inhibited NF-κB activation,blocked pro-IL-1β induction,blocked,,
Cc1ccc(S(=O)(=O)/C=C/C#N)cc1 [Bay 11-7082],had a stronger effect,,blocked,less active than disulfiram,blocked pro-IL-1β induction
